For this assay, the system named is db/db mice. Nature of the assay: Evaluation of glucose levels in db/db mice. To be noted: Mus musculus, 168 h, 30 mg/kg oral gavage daily for 7 days, 100% = glucose not different from lean values, read-out: Glucose Normalisation. It counts as in vivo. The method, then:
Five week old male diabetic (db/db) mice [C57BlKs/j-m+/+ Lepr(db), Jackson Laboratory, Bar Harbor, Me.] or lean littermates (db+) were housed 6 per cage (10″×20″×8″ with aspen chip bedding) with food (Purina 5015) and water available at all times. After an acclimation period of 2 weeks, animals were individually identified by ear notches, weighed, and bled via the tail vein for determination of initial glucose levels. Blood was collected (100 μl) from unfasted animals by wrapping each mouse in a towel, cutting the tip of the tail with a scalpel, and milking blood from the tail into a heparinized capillary tube (Fisher) balanced on the edge of the bench. Sample was discharged into a heparinized microtainer with gel separator (VWR) and retained on ice. Plasma was obtained after centrifugation at 4° C. and glucose measured immediately. Remaining plasma was frozen until the completion of the experiment, when glucose and triglycerides were assayed in all samples. Animals were grouped based on initial glucose levels and body weights. Beginning the following morning, mice were dosed daily by oral gavage for 7 days using a 20 gauge, 1½″ curved disposable feeding needle. Treatments were test compounds (30 mg/kg), a positive control agent (30 mg/kg) or vehicle [1% carboxymethylcellulose (w/v)/0.25% Tween80 (w/v); 0.3 ml/mouse]. On day 7, mice were weighed and bled (tail vein) 3 hours after dosing. Twenty-four hours after the 7th dose (i.e., day 8), animals were bled again (tail vein). Samples obtained from conscious animals on days 0, 7 and 8 were assayed for glucose. After the 24 hour bleed, animals were weighed and dosed for the final time. Three hours after dosing on day 8, animals were anesthetized by inhalation of isoflurane and blood obtained via cardiac puncture (0.5-0.7 ml). Whole blood was transferred to serum separator tubes, chilled on ice and permitted to clot. Serum was obtained after centrifugation at 4° C. and frozen until analysis for compound levels. After sacrifice by cervical dislocation, the liver, heart and epididymal fat pads were excised and weighed.
The animals dosed with vehicle had average triglycerides values of 170-230 mg/dl, which were reduced by the positive PPARγ control (70-120 mg/dl with a mean reduction of 50%). Male db/db mice were hyperglycemic (average glucose of 680-730 mg/dl on the 7th day of treatment), while lean animals had average glucose levels between 190-230 mg/dl.
Glucose was measured […] using commercially purchased reagents (Sigma #315-500). According to the manufacturers, the procedures were modified from published work (McGowan, M. W., Artiss, J. D., Strandbergh, D. R. & Zak, B. Clin Chem, 20:470-5 (1974) and Keston, A. Specific colorimetric enzymatic analytical reagents for glucose. Abstract of papers 129th Meeting ACS, 31C (1956).); and depend on the release of a mole of hydrogen peroxide for each mole of analyte, coupled with a color reaction first described by Trinder (Trinder, P. Determination of glucose in blood using glucose oxidase with an alternative oxygen acceptor. Ann Clin Biochem, 6:24 (1969)). The absorbance of the dye produced is linearly related to the analyte in the sample. The assays were further modified in our laboratory for use in a 96 well format. Standards (Sigma #339-11, Sigma #16-11, and Sigma #CC0534 for glucose, triglycerides and total cholesterol, respectively), quality control plasma (Sigma # A2034), and samples (2 or 5 μl/well) were measured in duplicate using 200 μl of reagent. An additional aliquot of sample, pipetted to a third well and diluted in 200 μl water, provided a blank for each specimen. Plates were incubated at room temperature (18, 15, and 10 minutes for glucose, triglycerides and total cholesterol, respectively) on a plate shaker (DPC Micormix 5) and absorbance read at 500 nm (glucose and total cholesterol) or 540 nm (triglycerides) on a plate reader (Wallac Victor 1420). […]

The structures appear in SMILES notation.

Take `Cc1oc(-c2cccc(Br)c2)nc1CCOc1ccc(CC(C)(Oc2ccccc2)C(=O)O)cc1` (stereo not drawn) [Example 8, 3-(4-{2-[2-(3-Bromophenyl)-5-methyloxazol-4-yl]ethoxy}phenyl)-2-methyl-2-phenoxypropionic acid]: the inhibition in vivo at 30 mg/kg is 97%.
In the case of `Cc1oc(C2(C)CCCCC2)nc1CCOc1ccc(CC(C)(Oc2ccccc2)C(=O)O)cc1` (stereo not drawn) [Example 9, 2-Methyl-3-(4-{2-[5-methyl-2-(1-methylcyclohexyl)oxazol-4-yl]ethoxy}phenyl)-2-phenoxypropionic acid], the inhibition in vivo at 30 mg/kg was found to be 95%.
The result for `Cc1oc(-c2cccs2)nc1CCOc1ccc(CC(C)(Oc2ccc(C(C)(C)C)cc2)C(=O)O)cc1` (stereo not drawn) [Example 17, 2-Methyl-3-{4-[2-(5-methyl-2-thiophen-2-yl-oxazol-4-yl)-ethoxy]-phenyl}-2-(4-tert-butylphenoxy)-propionic acid] reads 112%; that for `Cc1oc(C2CCCCC2)nc1CCOc1ccc(CC(C)(Oc2ccc(C(C)(C)C)cc2)C(=O)O)cc1` (stereo not drawn) [Example 18, 2-Methyl-3-(4-{2-[5-methyl-2-cyclohexylyl-oxazol-4-yl]-ethoxy}-phenyl)-2-(4-tert-butylphenoxy)-propionic acid], 110%; that for `COc1ccc(OC(C)(Cc2ccc(OCCc3nc(-c4cccs4)oc3C)cc2)C(=O)O)cc1` (stereo not drawn) [Example 19, 2-Methyl-3-{4-[2-(5-methyl-2-thiophen-2-yl-oxazol-4-yl)-ethoxy]-phenyl}-2-(4-methoxyphenoxy)-propionic acid], 95%.
In the case of `Cc1oc(-c2cccs2)nc1CCOc1ccc(CC(C)(Oc2cccc(F)c2)C(=O)O)cc1` (stereo not drawn) [Example 22, 2-(3-Fluoro-phenoxy)-2-methyl-3-{4-[2-(5-methyl-2-thiophen-2-yl-oxazol-4-yl)-ethoxy]-phenyl}-propionic acid] it was 85%; in that of `Cc1oc(C2CCCCC2)nc1CCOc1ccc(CC(C)(Oc2cccc(F)c2)C(=O)O)cc1` (stereo not drawn) [Example 23, 2-(3-Fluoro-phenoxy)-2-methyl-3-{4-[2-(5-methyl-2-cyclohexyl-oxazol-4-yl)-ethoxy]-phenyl}-propionic acid], 97%.
The result for `Cc1oc(-c2cccs2)nc1CCOc1ccc(CC(C)(Oc2cccc(C(C)(C)C)c2)C(=O)O)cc1` (stereo not drawn) [Example 25, 2-(3-tert-Butyl-phenoxy)-2-methyl-3-{4-[2-(5-methyl-2-thiophen-2-yl-oxazol-4-yl)-ethoxy]-phenyl}-propionic acid] reads 73%; that for `Cc1oc(-c2cccs2)nc1CCOc1ccc(CC(C)(Oc2ccccc2F)C(=O)O)cc1` (stereo not drawn) [Example 27, 2-(2-Fluoro-phenoxy)-2-methyl-3-{4-[2-(5-methyl-2-thiophen-2-yl-oxazol-4-yl)-ethoxy]-phenyl}-propionic acid], 86%.
Consider `Cc1oc(-c2ccccc2)nc1CCOc1ccc(CC(C)(Oc2ccc(Cl)cc2)C(=O)O)cc1` (stereo not drawn) [Example 29, 2-(4-Chloro-phenoxy)-2-methyl-3-{4-[2-(5-methyl-2-phenyl-oxazol-4-yl)-ethoxy]-phenyl}-propionic acid], for which the inhibition in vivo at 30 mg/kg was determined as 86%.
In the case of `Cc1oc(C2CCCCC2)nc1CCOc1ccc(CC(C)(Oc2ccc(C3CCCCC3)cc2)C(=O)O)cc1` (stereo not drawn) [Example 34, 3-{4-[2-(2-Cyclohexyl-5-methyl-oxazol-4-yl)-ethoxy]-phenyl}-2-(4-cyclohexyl-phenoxy)-2-methyl-propionic acid] it was 80%; in that of `Cc1ccc(OC(C)(Cc2ccc(OCCc3nc(C4CCCCC4)oc3C)cc2)C(=O)O)cc1C` (stereo not drawn) [Example 35, 3-{4-[2-(2-Cyclohexyl-5-methyl-oxazol-4-yl)-ethoxy]-phenyl}-2-(3,4-dimethyl-phenoxy)-2-methyl-propionic acid], 84%; in that of `Cc1ccc(OC(C)(Cc2ccc(OCCc3nc(-c4cccs4)oc3C)cc2)C(=O)O)cc1C` (stereo not drawn) [Example 36, 2-(3,4-Dimethyl-phenoxy)-2-methyl-3-{4-[2-(5-methyl-2-thiophen-2-yl-oxazol-4-yl)-ethoxy]-phenyl}-propionic acid], 92%.
In the case of `Cc1ccc(OC(C)(Cc2ccc(OCCc3nc(-c4cccs4)oc3C)cc2)C(=O)O)cc1` (stereo not drawn) [Example 40, 2-Methyl-3-{4-[2-(5-methyl-2-thiophen-2-yl-oxazol-4-yl)-ethoxy]-phenyl}-2-p-tolyloxy-propionic acid] it was 103%; in that of `Cc1ccc(OC(C)(Cc2ccc(OCCc3nc(C4CCCCC4)oc3C)cc2)C(=O)O)cc1` (stereo not drawn) [Example 41, 3-{4-[2-(2-Cyclohexyl-5-methyl-oxazol-4-yl)-ethoxy]-phenyl}-2-methyl-2-p-tolyloxy-propionic acid], 101%.
The result for `Cc1oc(C2CCCCC2)nc1CCOc1ccc(CC(C)(Oc2ccc(OC(F)(F)F)cc2)C(=O)O)cc1` (stereo not drawn) [Example 44, 3-{4-[2-(2-Cyclohexyl-5-methyl-oxazol-4-yl)-ethoxy]-phenyl}-2-methyl-2-(4-trifluoromethoxy-phenoxy)-propionic acid] reads 83%; that for `Cc1oc(-c2cccs2)nc1CCOc1ccc(CC(C)(Oc2ccc(C(F)(F)F)cc2)C(=O)O)cc1` (stereo not drawn) [Example 51, 2-Methyl-3-{4-[2-(5-methyl-2-thiophen-2-yl-oxazol-4-yl)-ethoxy]-phenyl}-2-(4-trifluoromethyl-phenoxy)-propionic acid], 88%; that for `Cc1oc(C2CCCCC2)nc1CCOc1ccc(CC(C)(Oc2ccc(C(F)(F)F)cc2)C(=O)O)cc1` (stereo not drawn) [Example 52, 3-{4-[2-(2-Cyclohexyl-5-methyl-oxazol-4-yl)-ethoxy]-phenyl}-2-methyl-2-(4-trifluoromethyl-phenoxy)-propionic acid], 98%.
In the case of `Cc1oc(C2CCCCC2)nc1CCOc1ccc(CC(C)(Oc2ccc(F)c(F)c2)C(=O)O)cc1` (stereo not drawn) [Example 58, 3-{4-[2-(2-Cyclohexyl-5-methyl-oxazol-4-yl)-ethoxy]-phenyl}-2-(3,4-difluoro-phenoxy)-2-methyl-propionic acid], the inhibition in vivo at 30 mg/kg amounted to 81%.
Take `Cc1cccc(OC(C)(Cc2ccc(OCCc3nc(-c4cccs4)oc3C)cc2)C(=O)O)c1` (stereo not drawn) [Example 61, 2-Methyl-3-{4-[2-(5-methyl-2-thiophen-2-yl-oxazol-4-yl)-ethoxy]-phenyl}-2-m-tolyloxy-propionic acid]: the inhibition in vivo at 30 mg/kg stood at 79%.
Turning to `Cc1cccc(OC(C)(Cc2ccc(OCCc3nc(C4CCCCC4)oc3C)cc2)C(=O)O)c1` (stereo not drawn) [Example 62, 3-{4-[2-(2-Cyclohexyl-5-methyl-oxazol-4-yl)-ethoxy]-phenyl}-2-methyl-2-m-tolyloxy-propionic acid], the inhibition in vivo at 30 mg/kg is 79%.
The result for `Cc1oc(-c2cccs2)nc1CCOc1ccc(CC(C)(Oc2ccc(F)cc2)C(=O)O)cc1` (stereo not drawn) [Example 64, 2-(4-Fluoro-phenoxy)-2-methyl-3-{4-[2-(5-methyl-2-thiophen-2-yl-oxazol-4-yl)-ethoxy]-phenyl}-propionic acid] reads 97%.
The result for `Cc1oc(C2CCCCC2)nc1CCOc1ccc(CC(C)(Oc2ccc(F)cc2)C(=O)O)cc1` (stereo not drawn) [Example 65, 3-{4-[2-(2-Cyclohexyl-5-methyl-oxazol-4-yl)-ethoxy]-phenyl}-2-(4-fluoro-phenoxy)-2-methyl-propionic acid] reads 99%; that for `Cc1oc(C2(C)CCCCC2)nc1CCOc1ccc(C[C@](C)(Oc2ccc(F)cc2)C(=O)O)cc1` [Example 67, (S)-2-(4-Fluoro-phenoxy)-2-methyl-3-(4-{2-[5-methyl-2-(1-methyl-cyclohexyl)-oxazol-4-yl]-ethoxy}-phenyl)-propionic acid], 96%.

The values are drawn from patent US7345070B2, “Peroxisome proliferator activated receptor agonists” (Eli Lilly and Company, priority 2000, dated 2008).
